Tests used:
Assay in all cases: antibiotic activity (MIC)
Type in all cases: cell-based
[1] = test system: E. coli 0-111; conditions: Escherichia coli, 0111
Text: (§1) The antibiotic activity of sodium 7α-methoxy-7β-(2-aminothiazol-4-ylacetamido)-3-(1-methyl-1H-tetrazol-5-ylthiomethyl)-3-cephem-4-carboxylate obtained in the reference experiment is shown as follows.

[2] = test system: E. coli NIHJ; conditions: Escherichia coli
Text: as §1

[3] = test system: E. coli T-7; conditions: Escherichia coli, T7
Text: as §1

[4] = test system: K. pneumoniae DT; conditions: Klebsiella pneumoniae
Text: as §1

[5] = test system: K. pneumoniae GN 3835; conditions: Klebsiella pneumoniae, GN3835
Text: as §1

[6] = test system: P. vulgaris GN 4413; conditions: Proteus vulgaris, GN4413
Text: as §1

[7] = test system: Ps. aeruginosae PM3; conditions: Pseudomonas aeruginosa
Text: as §1

[8] = test system: S. aureus 1840; conditions: Staphylococcus aureus
Text: as §1

[9] = test system: S. aureus 209p; conditions: Staphylococcus aureus
Text: as §1

[10] = test system: S. aureus Fs 40204; conditions: Staphylococcus aureus, FS40204
Text: as §1

[11] = test system: Serr. marcescens IFO 12648; conditions: Serratia marcescens, IFO12648
Text: as §1

[12] = test system: Serratia TN0024
Text: as §1

Which results are given for CO[C@@]1(NC(=O)Cc2csc(N)n2)C(=O)N2C(C(=O)O)=C(CSc3nnnn3C)CS[C@@H]21 [Sodium 7α-methoxy-7β-(2-aminothiazol-4-ylacetamido)-3-(1-methyl-1H-tetrazol-5-ylthiomethyl)-3-cephem-4-carboxylate]?
MIC [1]: 0.78 µg/mL; MIC [2]: 1.56 µg/mL; MIC [3]: 6.25 µg/mL; MIC [4]: 0.78 µg/mL; MIC [5]: 1.56 µg/mL; MIC [6]: 6.25 µg/mL; MIC [7]: 6.25 µg/mL; MIC [8]: 3.13 µg/mL; MIC [9]: 1.56 µg/mL; MIC [10]: 3.13 µg/mL; MIC [11]: 6.25 µg/mL; MIC [12]: 6.25 µg/mL

Reference: patent US4145540A, “7β-Phosphoramido-7α-methoxycephalosporanic acid derivatives” (Takeda Chemical Industries, Ltd., priority 1975, dated 1979)
